Data taken from publication PMC9045377, “CpxA Phosphatase Inhibitor Activates CpxRA and Is a Potential Treatment for Uropathogenic Escherichia coli in a Murine Model of Infection” (Microbiology Spectrum, 2022).
pEC50: −log10 of the molar value. “Also recorded” adds a separate entry of the source. Structures can show the parent of a compound that is named as a salt.

Legend:
[1] = system: UPEC strain CFT073; type: in vivo, Escherichia coli (in female CBA/J mice)
[2] = system: UPEC strain CFT073; type: in vivo, Escherichia coli (in female CBA/J mice); details: compound 6 trial
Protocol: Four groups of eight female CBA/J mice were transurethrally inoculated with a target dose of ∼10^8 CFU of either CFT073 or CFT073ΔcpxA::cat. One group was treated with ciprofloxacin (2.5 mg/kg/dose dissolved in sterile distilled water) s.c. 12, 24, 36, 48, and 60 h after inoculation with CFT073 as described ([31]). The untreated CFT073 and CFT073ΔcpxA::cat inoculated groups were given the vehicle control s.c. at 12, 24, 36, 48, and 60 h after inoculation. The compound 6 treated group were given the drug (100 mg/kg) s.c. at 12, 36, and 60 h after inoculation with CFT073 and received the vehicle control s.c. at 24 and 48 h. The animals were sacrificed 4 h after the last treatment (64 h postinoculation) and CFU per milliliter or CFU per gram of tissue was determined in the urine, bladder, and kidneys.
Animal experiments were conducted according to the guidelines of the University of Michigan Institutional Animal Care and Use Committee. For the animal infection experiments, bacterial strains were cultured at 37°C in LB medium overnight with shaking ([30]). Female CBA/J mice (Jackson Laboratories, Bar Harbor, ME) were inoculated transurethrally with a target dose of ∼10^8 CFU of CFT073 or CFT073ΔcpxA::cat. Mice were subsequently treated 12 h later either with the vehicle, ciprofloxacin hydrochloride (PanReac AppliChem ITW Reagents; Jade Scientific), compound 1, compound 6, or compound 26 as described in Results and euthanized 4 h after the last treatment. Bacterial loads of each strain were calculated from the urine, bladder, and kidneys of mice as previously described; the limits of detection for these assays were 100 CFU/mL or 100 CFU/g of urine and tissue, respectively ([33]). Values of 50 CFU/mL or 50 CFU/g were assigned to specimens whose yields were below the limit of detection.
Due to the extreme skewness of the data, natural log transformation was used before the data were analyzed statistically. Descriptive statistics were calculated for all of the log-transformed variables. Statistical comparisons were done using analysis of variance (ANOVA) with follow-up pairwise tests adjusted for multiple comparisons using the Tukey procedure.

[3] = system: CpxRA; parameters: method as in PMID 31104993; details: β-galactosidase reporter assay in E. coli; read-out: mean 50% effective concentration (EC50), CpxRA activation; cited from earlier work
[4] = Toxicity / clinical signs in mice; type: in vivo, female CBA/J mice; details: 100 mg/kg s.c. twice a day for 3 days
Protocol: We tested our initial hit, compound 1 ([31]) (Fig. 1), for toxicity in a murine model using criteria described in Materials and Methods. […] To test compound 1 for efficacy, female CBA/J mice were transurethrally inoculated with ∼1 × 10^8 CFU of UPEC strain CFT073; 12 h later, mice were treated with 100 mg/kg compound 1 (n = 10) or the vehicle control (n = 5) s.c. twice a day for 3 days and then sacrificed 4 h after the last dose. No effect was seen on the recovery of E. coli CFT073 in the urine, bladder, or kidneys (see Fig. S1 in the supplemental material). As compound 1 lacked efficacy, we aimed to improve the scaffold to enhance potency and eliminate the nitro group liability ([32]).
We developed a high-performance liquid chromatography-tandem mass spectrometry (HPLC-MS/MS) assay to measure compound 6 with a lower limit of quantification of 1 ng/mL. Single-dose PK parameters of compound 6 were determined in female CBA/J mice (n = 15) given 100 mg/kg s.c. dissolved in the vehicle. Blood was obtained from groups of 3 mice 1, 2, 4, 8, and 24 h postinjection.
Animal experiments were conducted according to the guidelines of the Indiana University School of Medicine Institutional Animal Care and Use Committee by the IU Simon Comprehensive Cancer Center In Vivo Therapeutics Core, a component of the Indiana Clinical Translational Science Institute. For the pilot toxicity study with compound 1, 4- to 6-week-old CBA/J female mice were obtained from Jackson Laboratory (Bar Harbor, ME) and were treated with compound 1 or the vehicle control twice a day for 3 days as described in the results. […] Toxicity was determined by the following criteria: deteriorating health-hunched posture, lack of grooming, failure to thrive, failure to eat and drink for >48 h, rapid loss of 15 to 20% body weight, inactivity with hunched posture, loss of righting reflex and inability to maintain upright posture, loss of general body condition with spine becoming visible, and dehiscence of wounds and/or evidence of infection at injection sites not responsive to veterinary treatment.

| SMILES | recoverable CFU in urine vs CFT073-inoculated vehicle-treated controls ([1]; compound 26 trial, 8 mice/group, compound 26 100 mg/kg s.c. at 12, 36, 60 h, ciprofloxacin 2.5 mg/kg/dose s.c. at 12, 24, 36, 48, 60 h, sacrifice 64 h) | recoverable CFU in kidneys vs CFT073-inoculated vehicle-treated controls ([1]; compound 26 trial, same regimens) | CFU of CFT073 recovered in urine vs CFT073-inoculated vehicle control ([2]; 8 mice/group, compound 6 100 mg/kg s.c. at 12, 36, 60 h, ciprofloxacin 2.5 mg/kg/dose s.c. at 12, 24, 36, 48, 60 h, sacrifice 64 h) | CFU of CFT073 recovered in kidneys vs CFT073-inoculated vehicle control ([2]; same regimens) | pEC50 [3] | recovery of E. coli CFT073 in the urine, bladder, or kidneys vs vehicle control ([1]; 100 mg/kg s.c. twice a day for 3 days from 12 h after ~1 × 10^8 CFU transurethral, sacrificed 4 h after last dose) | duration of decreased activity after each dose [4] | toxicity ([4]; n = 3, observed 14 days) |
| --- | --- | --- | --- | --- | --- | --- | --- | --- |
| O=C(O)c1cn(C2CC2)c2cc(N3CCNCC3)c(F)cc2c1=O [ciprofloxacin, ciprofloxacin hydrochloride, reference compound] | significantly lower | significantly lower | significantly reduced | significantly reduced | – | – | – | – |
| NC1CCCc2c1[nH]c1ccc([N+](=O)[O-])cc21 (centres unmarked) [compound 1, 6-nitro-2,3,4,9-tetrahydro-1H-carbazol-1-amine] | – | – | – | – | 4.61 | no significant; also recorded: No effect | 20 min | exhibited no toxicity |
